# From PMC7586344, “Discovery of Novel pERK1/2- or β-Arrestin-Preferring 5-HT1A Receptor-Biased Agonists: Diversified Therapeutic-like versus Side Effect Profile” (Journal of Medicinal Chemistry, 2020)
# Key:
# Intrinsic clearance = type: in vitro ADME; settings: rat, rat liver microsomes, pH 7.4
# 5-HT1B = biological target: T1, 5-HT1B (Homo sapiens, UniProt P28222); assay: Off-target binding screen; settings: read-out: % Inhibition of Control Specific Binding; for inhibition at 1 µM: 1000 nM
# T1 construct: Eurofins Pharma Discovery Services (contract screen)
# T1 sequence (P28222 whole entry, species assumed): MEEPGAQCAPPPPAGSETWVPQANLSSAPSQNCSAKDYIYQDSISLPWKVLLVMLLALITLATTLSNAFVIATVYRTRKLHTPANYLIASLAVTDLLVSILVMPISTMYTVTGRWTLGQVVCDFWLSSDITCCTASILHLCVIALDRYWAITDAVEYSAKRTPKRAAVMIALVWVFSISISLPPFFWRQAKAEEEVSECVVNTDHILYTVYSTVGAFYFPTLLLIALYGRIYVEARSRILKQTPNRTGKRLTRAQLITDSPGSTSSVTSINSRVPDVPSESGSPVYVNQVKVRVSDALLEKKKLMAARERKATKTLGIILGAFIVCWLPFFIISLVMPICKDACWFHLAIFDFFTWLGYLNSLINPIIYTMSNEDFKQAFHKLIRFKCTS
# 5-HT2A = biological target: T2, 5-HT2A (Homo sapiens, UniProt P28223); assay: Off-target binding screen; settings: 1000 nM, read-out: % Inhibition of Control Specific Binding
# T2 construct: Eurofins Pharma Discovery Services (contract screen)
# T2 sequence (P28223 whole entry): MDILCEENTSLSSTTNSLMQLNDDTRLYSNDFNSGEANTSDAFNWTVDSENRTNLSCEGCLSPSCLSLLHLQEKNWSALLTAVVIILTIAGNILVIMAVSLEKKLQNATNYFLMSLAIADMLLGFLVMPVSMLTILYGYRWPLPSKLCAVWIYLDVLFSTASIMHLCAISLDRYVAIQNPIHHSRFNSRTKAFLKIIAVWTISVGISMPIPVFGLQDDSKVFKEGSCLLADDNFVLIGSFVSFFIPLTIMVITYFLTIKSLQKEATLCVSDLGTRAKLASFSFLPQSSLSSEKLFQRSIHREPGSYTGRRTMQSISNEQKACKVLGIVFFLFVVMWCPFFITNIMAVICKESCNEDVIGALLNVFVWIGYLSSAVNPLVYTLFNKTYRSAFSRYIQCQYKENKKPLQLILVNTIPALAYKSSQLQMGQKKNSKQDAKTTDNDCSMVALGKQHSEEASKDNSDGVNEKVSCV
# 5-HT3 = biological target: T3, 5-HT3 (Homo sapiens, UniProt P46098); assay: Off-target binding screen; settings: 1000 nM, read-out: % Inhibition of Control Specific Binding
# T3 construct: Eurofins Pharma Discovery Services (contract screen)
# T3 sequence (P46098 24-478): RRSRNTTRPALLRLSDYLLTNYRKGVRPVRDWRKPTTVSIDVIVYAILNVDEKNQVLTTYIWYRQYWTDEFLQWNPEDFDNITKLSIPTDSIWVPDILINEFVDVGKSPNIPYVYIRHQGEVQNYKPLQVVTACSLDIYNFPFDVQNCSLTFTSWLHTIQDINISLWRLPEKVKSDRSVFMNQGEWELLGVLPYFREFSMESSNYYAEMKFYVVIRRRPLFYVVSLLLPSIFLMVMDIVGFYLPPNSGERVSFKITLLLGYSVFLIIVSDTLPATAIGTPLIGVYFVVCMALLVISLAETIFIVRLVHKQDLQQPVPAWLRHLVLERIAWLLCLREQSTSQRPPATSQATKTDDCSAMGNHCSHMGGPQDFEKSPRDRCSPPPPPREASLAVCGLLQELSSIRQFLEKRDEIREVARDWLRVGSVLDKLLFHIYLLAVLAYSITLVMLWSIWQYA
# 5-HT5A = biological target: T4, 5-HT5A (Homo sapiens, UniProt P47898); assay: Off-target binding screen; settings: read-out: % Inhibition of Control Specific Binding; for inhibition at 1 µM: 1000 nM
# T4 construct: Eurofins Pharma Discovery Services (contract screen)
# T4 sequence (P47898 whole entry, species assumed): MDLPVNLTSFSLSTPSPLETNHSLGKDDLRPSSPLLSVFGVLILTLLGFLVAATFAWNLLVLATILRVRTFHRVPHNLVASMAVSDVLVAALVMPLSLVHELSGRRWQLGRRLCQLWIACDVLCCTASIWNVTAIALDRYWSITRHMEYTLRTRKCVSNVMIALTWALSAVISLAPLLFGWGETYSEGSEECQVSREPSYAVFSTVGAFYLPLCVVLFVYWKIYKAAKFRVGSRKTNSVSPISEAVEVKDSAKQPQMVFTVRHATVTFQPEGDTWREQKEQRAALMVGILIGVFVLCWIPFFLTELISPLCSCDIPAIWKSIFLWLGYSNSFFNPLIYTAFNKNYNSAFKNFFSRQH
# α2A = biological target: T5, α2A (Homo sapiens, UniProt P08913); assay: Off-target binding screen; settings: read-out: % Inhibition of Control Specific Binding; for inhibition at 0.01 µM: 10 nM; for inhibition at 0.1 µM: 100 nM; for inhibition at 1 µM: 1000 nM
# T5 construct: Eurofins Pharma Discovery Services (contract screen)
# T5 sequence (P08913 1-465): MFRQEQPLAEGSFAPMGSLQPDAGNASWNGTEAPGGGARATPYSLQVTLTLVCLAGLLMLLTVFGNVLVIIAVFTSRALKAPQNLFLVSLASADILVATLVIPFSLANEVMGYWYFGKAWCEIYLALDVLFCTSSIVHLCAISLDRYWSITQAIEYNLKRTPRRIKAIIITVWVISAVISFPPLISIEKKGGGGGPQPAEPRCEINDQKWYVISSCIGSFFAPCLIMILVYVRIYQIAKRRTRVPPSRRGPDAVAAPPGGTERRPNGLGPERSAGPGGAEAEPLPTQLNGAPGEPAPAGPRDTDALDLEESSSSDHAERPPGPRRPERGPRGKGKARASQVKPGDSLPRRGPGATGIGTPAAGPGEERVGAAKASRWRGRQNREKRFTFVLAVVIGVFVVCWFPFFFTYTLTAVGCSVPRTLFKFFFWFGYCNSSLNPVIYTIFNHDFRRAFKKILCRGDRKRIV
# D5 = biological target: T6, D5 (Homo sapiens, UniProt P21918); assay: Off-target binding screen; settings: read-out: % Inhibition of Control Specific Binding; for inhibition at 1 µM: 1000 nM
# T6 construct: Eurofins Pharma Discovery Services (contract assay)
# T6 sequence (P21918 whole entry): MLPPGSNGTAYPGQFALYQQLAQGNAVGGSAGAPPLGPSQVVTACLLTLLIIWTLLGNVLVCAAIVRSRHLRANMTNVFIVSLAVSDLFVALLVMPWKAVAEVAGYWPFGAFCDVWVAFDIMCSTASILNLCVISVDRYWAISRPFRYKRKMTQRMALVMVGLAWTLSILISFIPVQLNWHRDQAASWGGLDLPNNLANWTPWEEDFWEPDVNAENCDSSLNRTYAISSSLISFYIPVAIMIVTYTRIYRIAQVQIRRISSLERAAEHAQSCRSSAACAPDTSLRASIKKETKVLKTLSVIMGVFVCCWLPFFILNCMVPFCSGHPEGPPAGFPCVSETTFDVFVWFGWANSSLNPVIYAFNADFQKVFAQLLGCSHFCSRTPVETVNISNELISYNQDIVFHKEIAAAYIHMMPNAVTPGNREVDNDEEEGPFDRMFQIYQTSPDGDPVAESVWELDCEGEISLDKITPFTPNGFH
# CB1 = biological target: T7, CB1 (Homo sapiens, UniProt P21554); assay: Off-target binding screen; settings: 1000 nM, read-out: % Inhibition of Control Specific Binding
# T7 construct: Eurofins Pharma Discovery Services (contract assay)
# T7 sequence (P21554 whole entry, species assumed): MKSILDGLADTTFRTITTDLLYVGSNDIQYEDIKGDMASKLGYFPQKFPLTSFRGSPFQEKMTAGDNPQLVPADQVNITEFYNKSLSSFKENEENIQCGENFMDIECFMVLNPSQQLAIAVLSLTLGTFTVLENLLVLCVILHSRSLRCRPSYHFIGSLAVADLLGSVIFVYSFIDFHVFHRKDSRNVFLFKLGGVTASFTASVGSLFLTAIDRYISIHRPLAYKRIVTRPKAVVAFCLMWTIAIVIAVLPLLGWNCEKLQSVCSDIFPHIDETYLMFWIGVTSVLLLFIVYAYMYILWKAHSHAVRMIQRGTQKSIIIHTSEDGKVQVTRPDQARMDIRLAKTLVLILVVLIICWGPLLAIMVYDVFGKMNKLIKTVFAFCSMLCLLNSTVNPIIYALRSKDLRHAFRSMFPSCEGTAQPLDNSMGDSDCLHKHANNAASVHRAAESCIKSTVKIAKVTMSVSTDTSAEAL
# CB2 = biological target: T8, CB2 (Homo sapiens, UniProt P34972); assay: Off-target binding screen; settings: 1000 nM, read-out: % Inhibition of Control Specific Binding
# T8 construct: Eurofins Pharma Discovery Services (contract assay)
# T8 sequence (P34972 whole entry, species assumed): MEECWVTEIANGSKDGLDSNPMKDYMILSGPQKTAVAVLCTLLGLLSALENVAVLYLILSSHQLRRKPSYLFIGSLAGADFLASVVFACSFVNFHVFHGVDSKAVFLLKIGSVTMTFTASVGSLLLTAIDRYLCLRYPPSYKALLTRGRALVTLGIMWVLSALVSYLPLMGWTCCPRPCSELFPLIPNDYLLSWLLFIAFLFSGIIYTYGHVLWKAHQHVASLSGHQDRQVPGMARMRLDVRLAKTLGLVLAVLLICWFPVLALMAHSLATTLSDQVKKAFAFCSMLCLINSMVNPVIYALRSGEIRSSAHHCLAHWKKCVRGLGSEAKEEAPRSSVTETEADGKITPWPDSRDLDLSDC
# M1 = biological target: T9, M1 (Homo sapiens, UniProt P11229); assay: Off-target binding screen; settings: 1000 nM, read-out: % Inhibition of Control Specific Binding
# T9 construct: Eurofins Pharma Discovery Services (contract assay)
# T9 sequence (P11229 1-460): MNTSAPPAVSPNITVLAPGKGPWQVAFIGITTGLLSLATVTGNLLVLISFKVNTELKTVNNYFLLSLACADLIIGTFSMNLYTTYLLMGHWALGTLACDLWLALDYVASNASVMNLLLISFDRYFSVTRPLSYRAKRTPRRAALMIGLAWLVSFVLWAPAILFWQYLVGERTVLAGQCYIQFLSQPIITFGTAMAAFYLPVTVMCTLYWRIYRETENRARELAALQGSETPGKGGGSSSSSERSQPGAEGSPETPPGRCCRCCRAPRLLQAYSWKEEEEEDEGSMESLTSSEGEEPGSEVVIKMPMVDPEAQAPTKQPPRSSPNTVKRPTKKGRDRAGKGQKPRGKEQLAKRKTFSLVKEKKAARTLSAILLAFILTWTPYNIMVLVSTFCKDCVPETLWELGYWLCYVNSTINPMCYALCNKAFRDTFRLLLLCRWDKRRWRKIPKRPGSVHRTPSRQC
# M2 = biological target: T10, M2 (Homo sapiens, UniProt P08172); assay: Off-target binding screen; settings: 1000 nM, read-out: % Inhibition of Control Specific Binding
# T10 construct: Eurofins Pharma Discovery Services (contract assay)
# T10 sequence (P08172 1-466): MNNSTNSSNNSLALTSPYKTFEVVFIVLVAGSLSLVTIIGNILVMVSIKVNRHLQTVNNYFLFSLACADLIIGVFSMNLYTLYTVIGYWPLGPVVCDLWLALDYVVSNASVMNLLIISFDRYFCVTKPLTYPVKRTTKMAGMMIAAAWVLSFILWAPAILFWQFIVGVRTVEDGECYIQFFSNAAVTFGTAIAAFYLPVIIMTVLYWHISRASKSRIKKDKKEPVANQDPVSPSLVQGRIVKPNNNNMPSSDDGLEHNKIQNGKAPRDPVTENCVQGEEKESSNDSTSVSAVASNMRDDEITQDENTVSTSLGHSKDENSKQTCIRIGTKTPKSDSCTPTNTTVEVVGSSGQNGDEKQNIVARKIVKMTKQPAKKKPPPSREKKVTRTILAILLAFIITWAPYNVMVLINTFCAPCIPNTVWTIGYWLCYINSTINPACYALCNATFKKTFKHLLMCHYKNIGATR
# M3 = biological target: T11, M3 (Homo sapiens, UniProt P20309); assay: Off-target binding screen; settings: 1000 nM, read-out: % Inhibition of Control Specific Binding
# T11 construct: Eurofins Pharma Discovery Services (contract assay)
# H3 = biological target: T12, H3 (Homo sapiens, UniProt Q9Y5N1); assay: Off-target binding screen; settings: 1000 nM, read-out: % Inhibition of Control Specific Binding
# T12 construct: Eurofins Pharma Discovery Services (contract assay)
# T12 sequence (Q9Y5N1 whole entry): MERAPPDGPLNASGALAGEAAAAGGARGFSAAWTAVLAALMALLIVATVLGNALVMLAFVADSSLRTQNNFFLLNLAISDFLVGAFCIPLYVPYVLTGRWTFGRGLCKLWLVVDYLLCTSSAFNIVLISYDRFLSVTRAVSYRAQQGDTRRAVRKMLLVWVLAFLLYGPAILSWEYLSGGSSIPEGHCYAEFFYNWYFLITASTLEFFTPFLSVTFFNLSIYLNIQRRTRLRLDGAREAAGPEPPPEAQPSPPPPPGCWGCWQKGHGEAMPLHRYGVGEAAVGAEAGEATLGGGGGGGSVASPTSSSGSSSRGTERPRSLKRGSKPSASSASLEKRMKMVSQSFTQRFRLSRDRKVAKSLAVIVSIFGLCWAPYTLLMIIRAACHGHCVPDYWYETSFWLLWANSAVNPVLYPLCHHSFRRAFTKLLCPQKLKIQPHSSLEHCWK
# µ (MOR) = biological target: T13, µ (MOR) (Homo sapiens, UniProt P35372); assay: Off-target binding screen; settings: read-out: % Inhibition of Control Specific Binding; for inhibition at 1 µM: 1000 nM
# T13 construct: Eurofins Pharma Discovery Services (contract assay)
# T13 sequence (P35372 whole entry): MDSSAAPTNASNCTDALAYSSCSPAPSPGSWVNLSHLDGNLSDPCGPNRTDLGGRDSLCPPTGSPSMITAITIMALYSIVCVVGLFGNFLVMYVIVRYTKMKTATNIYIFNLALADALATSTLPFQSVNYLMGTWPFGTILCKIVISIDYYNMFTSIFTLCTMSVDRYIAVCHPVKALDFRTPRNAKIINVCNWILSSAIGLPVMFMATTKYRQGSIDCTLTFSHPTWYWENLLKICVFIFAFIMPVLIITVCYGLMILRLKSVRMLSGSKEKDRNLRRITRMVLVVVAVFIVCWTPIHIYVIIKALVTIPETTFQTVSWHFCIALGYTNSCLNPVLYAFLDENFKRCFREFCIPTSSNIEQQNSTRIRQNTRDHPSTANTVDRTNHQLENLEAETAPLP
# δ (DOR) = biological target: T14, δ (DOR) (Homo sapiens, UniProt P41143); assay: Off-target binding screen; settings: 1000 nM, read-out: % Inhibition of Control Specific Binding
# T14 construct: Eurofins Pharma Discovery Services (contract assay)
# T14 sequence (P41143 whole entry): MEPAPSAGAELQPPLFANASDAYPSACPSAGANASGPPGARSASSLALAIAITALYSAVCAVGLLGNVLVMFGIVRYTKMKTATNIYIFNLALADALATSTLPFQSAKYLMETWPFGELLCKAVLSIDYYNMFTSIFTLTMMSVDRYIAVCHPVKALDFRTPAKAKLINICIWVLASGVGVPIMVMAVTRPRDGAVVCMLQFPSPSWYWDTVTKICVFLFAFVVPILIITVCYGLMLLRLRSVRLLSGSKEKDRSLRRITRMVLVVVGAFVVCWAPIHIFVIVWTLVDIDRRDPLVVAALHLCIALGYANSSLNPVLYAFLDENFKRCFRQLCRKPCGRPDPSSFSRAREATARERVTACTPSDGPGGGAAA
# σ2 = biological target: T15, σ2 (Homo sapiens, UniProt Q5BJF2); assay: Off-target binding screen; settings: read-out: % Inhibition of Control Specific Binding; for inhibition at 0.01 µM: 10 nM; for inhibition at 0.1 µM: 100 nM; for inhibition at 1 µM: 1000 nM
# T15 construct: Eurofins Pharma Discovery Services (contract assay)
# T15 sequence (Q5BJF2 whole entry): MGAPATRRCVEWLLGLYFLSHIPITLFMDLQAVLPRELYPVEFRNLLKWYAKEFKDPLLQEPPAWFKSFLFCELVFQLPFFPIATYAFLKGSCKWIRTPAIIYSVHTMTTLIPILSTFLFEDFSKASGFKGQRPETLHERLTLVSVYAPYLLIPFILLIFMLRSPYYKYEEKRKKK
# BZD (peripheral) = assay: Off-target binding screen; settings: 1000 nM
# SERT = biological target: T16, SERT (Homo sapiens, UniProt P31645); assay: Off-target binding screen; settings: 1000 nM, read-out: % Inhibition of Control Specific Binding
# T16 construct: Eurofins Pharma Discovery Services
# T16 sequence (P31645 whole entry, species assumed): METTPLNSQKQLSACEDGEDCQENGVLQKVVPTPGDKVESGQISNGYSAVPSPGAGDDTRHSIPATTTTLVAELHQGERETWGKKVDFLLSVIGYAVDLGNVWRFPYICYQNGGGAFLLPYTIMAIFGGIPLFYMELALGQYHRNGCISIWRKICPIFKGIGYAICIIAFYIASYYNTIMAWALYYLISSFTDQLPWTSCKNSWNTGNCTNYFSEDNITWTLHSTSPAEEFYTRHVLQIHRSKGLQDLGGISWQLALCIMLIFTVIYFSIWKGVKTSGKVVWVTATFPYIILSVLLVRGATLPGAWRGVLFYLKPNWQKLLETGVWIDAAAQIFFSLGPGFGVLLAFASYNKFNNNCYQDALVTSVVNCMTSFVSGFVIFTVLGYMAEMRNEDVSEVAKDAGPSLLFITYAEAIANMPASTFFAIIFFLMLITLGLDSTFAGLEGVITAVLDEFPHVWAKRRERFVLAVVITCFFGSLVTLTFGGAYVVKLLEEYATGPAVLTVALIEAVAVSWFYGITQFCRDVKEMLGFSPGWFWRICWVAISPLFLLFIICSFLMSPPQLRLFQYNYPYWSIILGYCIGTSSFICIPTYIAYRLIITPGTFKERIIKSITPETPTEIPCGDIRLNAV
Compound,"CLint scaled at […], 50 µM (Intrinsic clearance) [mL/min/kg]",inhibition at 1 µM (5-HT1B) [%],inhibition at 1 µM (5-HT2A) [%],inhibition at 1 µM (5-HT3) [%],inhibition at 1 µM (5-HT5A) [%],inhibition at 1 µM (α2A) [%],inhibition at 1 µM (D5) [%],inhibition at 1 µM (CB1) [%],inhibition at 1 µM (CB2) [%],inhibition at 1 µM (M1) [%],inhibition at 1 µM (M2) [%],inhibition at 1 µM (M3) [%],inhibition at 1 µM (H3) [%],inhibition at 1 µM (µ (MOR)) [%],inhibition at 1 µM (δ (DOR)) [%],inhibition at 0.01 µM (σ2) [%],inhibition at 0.1 µM (σ2) [%],inhibition at 1 µM (σ2) [%],% Inhibition of Control Specific Binding (BZD (peripheral)) [%],inhibition at 1 µM (SERT) [%],further results
"O=C(c1ccc(F)c(Cl)c1)N1CCC(F)(CNCCOc2cccc3[nH]ccc23)CC1 [Compound 56, (4-(((2-((1H-Indol-4-yl)oxy)ethyl)amino)methyl)-4-fluoropiperidin-1-yl)(3-chloro-4-fluorophenyl)methanone]",9.6,63,10,-10,53,81,91,-15,1,-10,-8,1,-17,88,0,-1,31,63,-1.0,22,inhibition at 0.01 µM (5-HT1B; 10 nM): 1%; inhibition at 0.1 µM (5-HT1B; 100 nM): 17%; inhibition at 0.01 µM (5-HT5A; 10 nM): -18%; inhibition at 0.1 µM (5-HT5A; 100 nM): 12%; inhibition at 0.01 µM (α2A): -7%; inhibition at 0.1 µM (α2A): 33%; inhibition at 0.001 µM (D5; 1 nM): -10%; inhibition at 0.01 µM (D5; 10 nM): -3%; inhibition at 0.1 µM (D5; 100 nM): 53%; inhibition at 0.01 µM (µ (MOR); 10 nM): 10%; inhibition at 0.1 µM (µ (MOR); 100 nM): 58%
O=C(c1ccc(F)c(Cl)c1)N1CCC(F)(CNCCOc2ccccc2)CC1 [Compound 3],41.7,-7,3,-4,-1,66,40,-9,4,-2,-20,1,-14,26,3,11,33,82,-1.0,8,inhibition at 0.01 µM (α2A): -5%; inhibition at 0.1 µM (α2A): 21%
"CNc1ccccc1OCCNCC1(F)CCN(C(=O)c2ccc(F)c(Cl)c2)CC1 [Compound 44, (3-Chloro-4-fluorophenyl)(4-fluoro-4-(((2-(2-(methylamino)phenoxy)ethyl)amino)methyl)piperidin-1-yl)methanone]",48.8,0,-2,-11,2,10,29,3,-5,-6,-12,9,-13,22,-5,2,10,52,-5.0,18,–
